# Columns and labels:
# TRPV4 = target: T1, TRPV4 (Mus musculus, UniProt Q9EPK8); test: Calcium imaging of TRPV4-mediated [Ca2+]i in pancreatic acini (agonists, shear stress, Yoda1 sustained phase); format: cell-based; conditions: for agonist effect on [Ca2+]i: GSK101 50 nM, arachidonic acid 20 μM, 5′,6′-EET 5 μM
# T1 construct: endogenous in cells; host or cells: freshly isolated mouse pancreatic acini (C57BL/6J WT)
# Description: (§1) Mouse pancreatic acini were isolated using a standard collagenase digestion protocol. Isolated acini were plated on a thin-layered, Matrigel-coated, glass-bottom, culture plate (MatTek, P35G-0-14-C). Freshly isolated acini were used in each experiment.
# Parallel-plate fluid flow chambers (μ-Slide I 0.4 Luer, and μ-Slide I 0.2 Luer from Ibidi GmbH) were used to measure the shear stress-induced changes in intracellular calcium, mitochondrial depolarization, and trypsin activation. The constant flow rate with shear stress (T) was determined as follows: τ=η×[…] φ for μ-Slide I 0.4 Luer and τ=η×330.4 φ for μ-Slide I 0.2 Luer, where η=viscosity of the medium and φ=flow rate (according to the manufacturer's instructions, Ibidi).
# (§2) Calcium imaging in pancreatic acini was performed as previously described. The chemicals used in calcium imaging experiments included the following: Yoda1 (Tocris; 5586), GsMTx4 (Abcam; ab141871), 5′,6′-EET (Santa Cruz Biotechnology; sc-221066), AA (Millipore Sigma; A3611), HC067047 (Tocris; 4100), GSK1016790A (Millipore Sigma; G0798), RN1734 (Tocris; 3746), AACOCF3 (Tocris; 1462), YM26734 (Tocris; 2522), GF109203X (Tocris; 0741), and CCK8 (Sigma-Aldrich).
# Piezo1 [1] = target: T2, Piezo1 (Mus musculus, UniProt E2JF22); test: Calcium imaging of Yoda1 (Piezo1)-mediated [Ca2+]i in pancreatic acini; format: cell-based; conditions: for effect of protein kinase A and C blockers on Yoda1-induced sustained calcium elevation: KT5720 5 μM, GF109203X 20 μM; for effect on Yoda1-induced sustained [Ca2+]i elevation, YM26734 and AACOCF3 together: YM26734 10 μM + AACOCF3 30 μM, preincubated 10 minutes
# T2 construct: endogenous in cells; host or cells: freshly isolated mouse pancreatic acini (WT = Piezo1 fl/fl on a C57BL/6J background)
# T2 sequence (E2JF22 whole entry): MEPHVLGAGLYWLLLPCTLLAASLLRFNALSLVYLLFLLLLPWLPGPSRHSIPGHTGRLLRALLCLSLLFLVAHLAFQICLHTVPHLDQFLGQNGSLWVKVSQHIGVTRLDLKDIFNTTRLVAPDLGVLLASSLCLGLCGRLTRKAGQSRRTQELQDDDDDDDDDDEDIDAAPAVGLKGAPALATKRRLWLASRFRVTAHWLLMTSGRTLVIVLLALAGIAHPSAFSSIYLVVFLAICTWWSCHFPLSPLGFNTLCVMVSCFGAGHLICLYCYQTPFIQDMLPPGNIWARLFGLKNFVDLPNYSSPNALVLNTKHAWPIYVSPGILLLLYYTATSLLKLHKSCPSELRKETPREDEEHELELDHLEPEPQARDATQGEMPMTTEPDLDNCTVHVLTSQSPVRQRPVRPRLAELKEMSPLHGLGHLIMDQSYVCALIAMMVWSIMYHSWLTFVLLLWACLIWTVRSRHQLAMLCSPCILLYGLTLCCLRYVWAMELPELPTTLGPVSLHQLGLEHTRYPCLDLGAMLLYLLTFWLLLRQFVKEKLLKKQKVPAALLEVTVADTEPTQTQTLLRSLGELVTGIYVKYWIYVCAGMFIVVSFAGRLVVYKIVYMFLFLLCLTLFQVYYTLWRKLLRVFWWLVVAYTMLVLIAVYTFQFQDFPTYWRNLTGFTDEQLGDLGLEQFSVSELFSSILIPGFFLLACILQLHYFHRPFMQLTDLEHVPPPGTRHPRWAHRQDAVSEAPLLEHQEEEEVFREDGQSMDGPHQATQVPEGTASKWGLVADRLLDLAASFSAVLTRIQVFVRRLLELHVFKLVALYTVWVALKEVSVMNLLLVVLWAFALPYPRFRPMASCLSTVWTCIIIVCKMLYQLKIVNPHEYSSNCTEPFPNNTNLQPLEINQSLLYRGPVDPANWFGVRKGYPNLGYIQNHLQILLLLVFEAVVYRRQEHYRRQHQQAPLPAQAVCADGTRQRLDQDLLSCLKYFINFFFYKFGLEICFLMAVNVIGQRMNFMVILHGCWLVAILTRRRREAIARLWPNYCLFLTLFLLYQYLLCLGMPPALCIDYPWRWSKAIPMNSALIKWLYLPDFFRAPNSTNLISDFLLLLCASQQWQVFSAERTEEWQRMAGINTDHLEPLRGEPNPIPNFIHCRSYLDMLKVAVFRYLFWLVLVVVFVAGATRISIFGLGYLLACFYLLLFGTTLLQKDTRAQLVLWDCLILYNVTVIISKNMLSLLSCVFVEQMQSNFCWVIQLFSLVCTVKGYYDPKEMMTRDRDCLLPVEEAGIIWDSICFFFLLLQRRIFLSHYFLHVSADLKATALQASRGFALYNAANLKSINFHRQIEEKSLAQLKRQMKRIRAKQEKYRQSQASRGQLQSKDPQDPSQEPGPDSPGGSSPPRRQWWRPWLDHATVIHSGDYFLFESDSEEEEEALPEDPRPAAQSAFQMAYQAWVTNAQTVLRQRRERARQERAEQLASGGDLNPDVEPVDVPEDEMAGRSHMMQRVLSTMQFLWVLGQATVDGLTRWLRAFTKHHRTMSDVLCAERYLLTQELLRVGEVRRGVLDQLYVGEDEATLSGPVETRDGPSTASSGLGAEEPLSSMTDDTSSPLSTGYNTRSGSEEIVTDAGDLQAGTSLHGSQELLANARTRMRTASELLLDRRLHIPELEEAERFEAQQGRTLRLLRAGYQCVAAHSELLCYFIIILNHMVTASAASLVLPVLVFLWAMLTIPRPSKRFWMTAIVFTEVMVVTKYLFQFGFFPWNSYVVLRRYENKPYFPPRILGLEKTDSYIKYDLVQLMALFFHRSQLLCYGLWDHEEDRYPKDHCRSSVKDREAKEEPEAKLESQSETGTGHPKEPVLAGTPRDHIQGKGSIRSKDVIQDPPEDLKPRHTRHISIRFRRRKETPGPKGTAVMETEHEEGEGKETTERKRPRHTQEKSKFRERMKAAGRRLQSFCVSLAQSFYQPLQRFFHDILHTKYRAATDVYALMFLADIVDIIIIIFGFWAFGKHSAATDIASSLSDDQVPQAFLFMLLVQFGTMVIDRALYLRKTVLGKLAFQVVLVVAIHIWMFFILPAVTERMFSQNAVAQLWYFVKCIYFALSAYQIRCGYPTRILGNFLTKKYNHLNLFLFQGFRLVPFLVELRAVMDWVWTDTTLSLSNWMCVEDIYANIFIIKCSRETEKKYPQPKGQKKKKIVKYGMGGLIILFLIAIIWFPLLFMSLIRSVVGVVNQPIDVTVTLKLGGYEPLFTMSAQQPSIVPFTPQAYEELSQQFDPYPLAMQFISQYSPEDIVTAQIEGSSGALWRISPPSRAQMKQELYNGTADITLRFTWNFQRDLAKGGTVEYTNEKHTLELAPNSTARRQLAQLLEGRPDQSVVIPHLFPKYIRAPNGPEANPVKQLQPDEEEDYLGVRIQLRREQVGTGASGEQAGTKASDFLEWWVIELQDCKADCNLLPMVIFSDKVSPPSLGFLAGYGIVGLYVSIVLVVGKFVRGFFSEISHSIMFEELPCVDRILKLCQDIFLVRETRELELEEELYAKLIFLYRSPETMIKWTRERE
# Description: as §1, §2
# Piezo1 [2] = target: T2, Piezo1; test: Calcium imaging of Piezo1-mediated [Ca2+]i in mouse PSCs; format: cell-based; conditions: for effect on Yoda1-mediated sustained [Ca2+]i elevation, YM26734 and AACOCF3 together: YM26734 10 μM + AACOCF3 30 μM, Yoda1 25 μM, PSCs from WT mice
# Description: Mouse and human PSCs were isolated using collagenase digestion. Modified Krebs Henseleit Buffer (KHB) solution (100 mL) was prepared as previously described by Romac et al., Nat. Commun. 9(1):1715 (2018). Pancreatic tissue was digested with 2 mg of collagenase NB 8 (SERVA, catalog 17456) dissolved in 10 mL of modified KHB solution containing 1 mg soybean trypsin inhibitor (SBTI 1-S; Millipore Sigma, catalog T9003) and 20 mg BSA (Thermo Fisher Scientific; BP1600-100). Digestion solution (5 mL) was used to inflate the pancreas. Pancreas with 5 mL of digestion solution was incubated in a shaking water bath for 10 minutes at 37° C. The solution was then discarded. The pancreas tissue was cut into small pieces and digested with fresh 5 mL digestion buffer. Tissue was incubated in a shaking water bath for 40 minutes at 37° C. The cells were then separated from tissue by pipetting up-down with a 10 mL pipette and passed sequentially through a 70 μm and a 40 μm cell strainer. The filtrate was centrifuged at 150×g for 3 minutes at room temperature. The cells were washed with 10 mL Leibovitz's media (Thermo Fisher Scientific, catalog 11415-064), passed through a 20 μm filter, and centrifuged at 80×g for 3 minutes at room temperature. The supernate was removed, and isolated stellate cells were plated on a thin-layered Matrigel-coated glass bottom culture plate (MatTek, P35G-0-14-C). Before plating the cells, Matrigel solution (Corning, catalog 354234) at a ratio of 1.5:100 DMEM/F12 (Thermo Fisher Scientific, catalog 11330-032) was poured onto the culture plate and incubated for 2 hr at 37° C. to form a thin layer of Matrigel coating. Matrigel mixture was removed, and the plate was washed with PBS before cells were plated. Cell culture media, DMEM/F12 with 5% FBS was used for mouse stellate cells. Fresh, human pancreatic tissue was digested with collagenase as described above with modifications. Collagenase (2.5 mg) in 10 mL of modified KHB solution was used for digestion. The digested tissues were filtered through a 100 μm cell strainer. The cells were cultured with DMEM/F12 with 10% FBS in a Matrigel-coated plate. After 24 hr, the cell media was replaced with fresh media to remove unattached and dead cells. After 2 days, cells were immunostained for GFAP and used for experiments. Perinuclear fat droplets were stained with BODIPY 493/503 (4,4-Difluoro-1,3,5,7,8-Pentamethyl-4-Bora-3a,4a-Diaza-s-Indacene; Invitrogen, catalog D3922) to confirm stellate cell quiescence. The cell viability following Yoda1 treatment was analyzed using the Live/Dead cell imaging kit (Thermo Fisher Scientific, catalog R37601). RNAs were isolated using the RiboPure Kit (Invitrogen, catalog AM1924) according to manufacturer's instructions.
# Fluid shear stress and mechanical pushing applied to stellate cells were achieved as previously described by Wang et al., J. Clin. Invest. 126(12): 4527-4536 (2016). Parallel-plate fluid flow chambers (μ-Slide I 0.4 Luer, or μ-Slide I 0.2 Luer from Ibidi) were used for fluid shear stress experiments. The fluid shear stress (T) was calculated using the formula: τ=η×[…] φ for μ-Slide I 0.4 Luer and τ=η×330.4 φ for μ-Slide I 0.2 Luer, where r represents viscosity of the medium and φ represents flow rate (according to the manufacturer's instructions, Ibidi). Mechanical pushing was achieved by applying a blunt borosilicate glass pipette once to the cell membrane with a deflection of 2-3 μm for 1 second using a micromanipulator (World Precision Instruments).
# Calcium 6-QF (Molecular Devices) dye was used for live-cell calcium imaging as described by Romac et al., Nat. Commun. 9(1):1715 (2018). Cells were imaged in HBSS buffer with 2 mM Ca^2+. Faintly and highly fluorescent loaded cells were excluded from analysis. […]
# pancreatic acini [3] = test: CCK-induced [Ca2+]i in pancreatic acini; format: cell-based, mouse; set-up: effect on CCK-induced sustained [Ca2+]i elevation: dose or concentration left out as unconfirmed
# Description: as §1, §2
# pancreatic acini [4] = test: Cell death assays of pancreatic acini (LDH release, Live/Dead, live-cell imaging); format: cell-based
# Description: The viability of pancreatic acini with Yoda1 and CCK treatments was analyzed using the Live/Dead Cell Imaging Kit (Thermo Fisher Scientific, catalog R37601) or the LDH Release Assay Kit (Promega, catalog G1780).
# pancreatic acini [5] = test: Mitochondrial depolarization in pancreatic acini (TMRE); format: cell-based, mouse
# Description: Live-cell mitochondrial depolarization was analyzed using the mitochondrial labeling dye, TMRE. Isolated acini were plated on a thin-layered, Matrigel-coated, glass-bottom culture plate with DMEM/F12 and 10% FBS media and placed in a CO2 incubator for 1 hr at 37° C. After 1 hr, the acini were incubated with TMRE (200 nM) in the bath buffer containing 140 mM NaCl, 4.7 mM KCl, 2.0 CaCl2, 1 mM MgCl2, 10 mM HEPES, and 10 mM glucose (pH adjusted to 7.4 with NaOH) for 30 minutes. The TMRE dye was washed and replaced with fresh bath buffer. The images were captured with a Zeiss Axio observer Z1 microscope with MetaMorph software (Molecular Devices) at intervals of 600 ms. TMRE was excited at 540-600 nm and emission collected at 585-675 nm. Carbonyl cyanide 4-(trifluoromethoxy) phenylhydrazone (FCCP), which uncouples the oxidative phosphorylation process and depolarizes mitochondria, was used as a positive control. A maximum of 2 mitochondrial puncta were taken per acinar cell.
# pancreatic acini [6] = test: Trypsinogen activation in pancreatic acini (BZiPAR); format: cell-based, mouse
# Description: To visualize Piezo1-induced trypsinogen activation, acini were loaded with active trypsin enzyme substrate BZiPAR (10 μM). Na-HEPES buffer with 2 mM Ca^2+ was used during imaging. A Zeiss Axio observer Z1 with a high-sensitivity EMCCD camera with a ×40/0.75 EC-Plan-NeoFluar DIC objective was used to capture the Z-stack images with stack thickness of 3 μm at an interval of 12 seconds. The BZiPAR fluorescent wavelength Ex/Em was 498/521 nm. BZiPAR was excited at 470-510 nm and emission collected at 495-550 nm. The captured images were analyzed with MetaMorph software (Molecular Devices).
# T1 sequence (Q9EPK8 whole entry): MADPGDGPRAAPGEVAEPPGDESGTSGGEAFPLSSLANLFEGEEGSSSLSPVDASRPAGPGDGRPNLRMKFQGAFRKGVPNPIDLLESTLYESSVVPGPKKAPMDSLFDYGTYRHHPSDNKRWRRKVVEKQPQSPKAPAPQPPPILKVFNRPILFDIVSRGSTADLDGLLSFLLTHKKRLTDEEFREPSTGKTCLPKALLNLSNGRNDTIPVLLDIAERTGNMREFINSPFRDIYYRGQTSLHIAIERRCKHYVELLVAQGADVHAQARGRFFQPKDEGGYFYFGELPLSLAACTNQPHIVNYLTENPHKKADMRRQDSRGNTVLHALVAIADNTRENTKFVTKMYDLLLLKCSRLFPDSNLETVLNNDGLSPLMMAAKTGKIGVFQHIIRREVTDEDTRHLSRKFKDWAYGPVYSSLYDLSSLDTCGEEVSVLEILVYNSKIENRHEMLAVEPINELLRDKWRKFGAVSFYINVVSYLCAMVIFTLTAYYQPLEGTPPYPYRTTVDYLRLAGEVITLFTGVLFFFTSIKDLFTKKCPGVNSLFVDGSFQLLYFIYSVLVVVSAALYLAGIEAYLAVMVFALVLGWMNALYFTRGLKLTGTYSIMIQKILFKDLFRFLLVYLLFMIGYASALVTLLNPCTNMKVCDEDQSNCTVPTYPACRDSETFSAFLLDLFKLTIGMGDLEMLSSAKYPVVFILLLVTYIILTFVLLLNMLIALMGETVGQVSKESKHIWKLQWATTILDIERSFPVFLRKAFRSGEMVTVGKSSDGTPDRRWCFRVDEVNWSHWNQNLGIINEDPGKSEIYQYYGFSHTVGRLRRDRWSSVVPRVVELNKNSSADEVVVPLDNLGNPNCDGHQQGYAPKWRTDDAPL
molecule,measurement,setting,value
"CCCCC/C=C\C/C=C\C/C=C\C/C=C\CCCC(=O)O [AA, arachidonic acid]",agonist effect on [Ca2+]i,TRPV4,induced significant increases in [Ca^2+]i
CCCCCCOC(=O)[C@]1(O)C[C@@H]2O[C@@]1(C)n1c3ccccc3c3c4c(c5c6ccccc6n2c5c31)C(=O)NC4 [KT5720],effect of protein kinase A and C blockers on Yoda1-induced sustained calcium elevation,Piezo1 [1],did not significantly affect the Yoda1-induced sustained calcium elevation
CC(C)NCCN(C(C)C)S(=O)(=O)c1ccc(Cl)cc1Cl [RN1734],effect on GSK101 (50 nM)-induced [Ca2+]i increase,"TRPV4; HC067 100 nM, RN1734 30 μM",inhibited
CCCCCCCCCCCC(=O)c1c(O)c(C(=O)CCCCCCCCCCC)c(O)c(C2CC(c3ccc(O)cc3)Oc3cc(O)ccc32)c1O (stereo not drawn) [YM26734],"effect on Yoda1-induced sustained [Ca2+]i elevation, YM26734 and AACOCF3 together",Piezo1 [1]; Yoda1 25 μM,blocked the Yoda1-induced sustained [Ca^2+]i elevation
same,effect of the secretory PLA2 inhibitor alone on Yoda1-induced sustained [Ca2+]i elevation,"Piezo1 [1]; YM26734 10 μM, Yoda1 25 μM",substantial and capable of blocking the sustained [Ca^2+]i elevation
same,"effect on Yoda1-mediated sustained [Ca2+]i elevation, YM26734 and AACOCF3 together",Piezo1 [2],significantly inhibited the Yoda1-mediated sustained elevation in [Ca^2+]i
Cc1cccc(F)c1C(=O)Nc1cnc(-c2cc3c(cc2Cl)OC(F)(F)O3)cn1 [CM4620],effect on Yoda1-induced [Ca2+]i rise,"Piezo1 [1]; CM4620 5 μM preincubated 1 hr, Yoda1 25 μM",did not alter the rise in [Ca^2+]i following Yoda1 stimulation
same,effect on CCK-induced sustained [Ca2+]i elevation,"pancreatic acini [3]; CM4620 preincubated 1 hr, CCK",blocked the sustained elevation in [Ca^2+]i produced by CCK
same,completeness of block of CCK-induced [Ca2+]i rise,"pancreatic acini [3]; CM4620 preincubated 1 hr, either concentration of CCK, residual calcium wave",did not completely block the [Ca^2+]i rise
CC(=O)OCOC(=O)CN(CC(=O)OCOC(C)=O)c1ccccc1OCCOc1ccccc1N(CC(=O)OCOC(C)=O)CC(=O)OCOC(C)=O [BAPTA-AM],effect on Yoda1-induced sustained Ca2+ rise,"Piezo1 [1]; BAPTA-AM 20 μM preincubated 30 minutes, Yoda1 50 μM",abolished the sustained Ca^2+ rise
same,effect on CCK-induced [Ca2+]i,"pancreatic acini [3]; BAPTA-AM 20 μM preincubated 30 minutes, CCK 1 nM",completely eliminated the effect of CCK on [Ca^2+]i
same,effect on Yoda1-induced LDH release,"pancreatic acini [4]; BAPTA-AM preincubated 30 minutes, Yoda1 50 μM",protected pancreatic acini from Yoda1-induced LDH release
same,effect on Yoda1-induced mitochondrial depolarization,pancreatic acini [5]; BAPTA-AM 20 μM preincubated 20 minutes,protected from Yoda1-induced mitochondrial depolarization
"CCCCC/C=C\C/C=C\C/C=C\CC1OC1CCCC(=O)O (stereo not drawn) [5′,6′-EET, 5′,6′-epoxyeicosatrienoic acid]",agonist effect on [Ca2+]i,TRPV4,induced significant increases in [Ca^2+]i
C[C@H](CCC(=O)O)C[C@H](C)C[C@H](C)C(=O)/C=C(\O)[C@H](C)C[C@H](C)C/C=C/[C@@H](C)[C@@H](O)[C@@H](C)[C@@H](O)C[C@@H]1CC[C@@](C)([C@H]2CC[C@@](C)([C@@H](C)O)O2)O1 [ionomycin],[Ca2+]i response to ionomycin after Yoda1 (25 μM) treatment,"Piezo1 [2]; ionomycin 1 μM, mouse PSCs",All cells responded
CCCCC/C=C\C/C=C\C/C=C\C/C=C\CCCC(=O)C(F)(F)F [AACOCF3],"effect on Yoda1-induced sustained [Ca2+]i elevation, YM26734 and AACOCF3 together",Piezo1 [1]; Yoda1 25 μM,blocked the Yoda1-induced sustained [Ca^2+]i elevation
same,"effect on Yoda1-mediated sustained [Ca2+]i elevation, YM26734 and AACOCF3 together",Piezo1 [2],significantly inhibited the Yoda1-mediated sustained elevation in [Ca^2+]i
CCK: secretagogue that stimulates pancreatic enzyme secretion by increasing [Ca2+]i,cell damage (LDH release) in WT vs Piezo1aci-KO acini,pancreatic acini [4]; CCK 1 nM,produced comparable cell damage
same,"acinar cell death, both Yoda1 and CCK vs individual application","pancreatic acini [4]; Yoda1 50 μM + CCK 1 nM, WT acini",acinar cell death was greater
same,time to mitochondrial depolarization after application,"pancreatic acini [5]; Yoda1 50 μM, CCK 10 nM",> 10 min
same,"CCK-mediated trypsin activation, WT vs Piezo1aci-KO acini",pancreatic acini [6]; CCK 10 nM,similar
same,trypsin activation (BZiPAR fluorescence),pancreatic acini [6]; Yoda1 50 μM or CCK 10 nM,activated trypsin in pancreatic acini over time
same,time to trypsin activation after application,"pancreatic acini [6]; Yoda1 50 μM, CCK 10 nM",> 20 min
CN(C)CCCn1cc(C2=C(c3c[nH]c4ccccc34)C(=O)NC2=O)c2ccccc21 [GF109203X],effect of protein kinase A and C blockers on Yoda1-induced sustained calcium elevation,Piezo1 [1],did not significantly affect the Yoda1-induced sustained calcium elevation
